# From US10765662B2, “Mono- or di-substituted indole derivatives as dengue viral replication inhibitors” (Janssen Pharmaceuticals, Inc., priority 2015, dated 2020)
# pEC50: −log10 of the molar value.
# What was measured:
# [1] = test system: DENV-2 16681 strain labeled with enhanced green fluorescent protein; assay: DENV-2 antiviral assay (eGFP fluorescence read-out in Vero cells); assay type: cell-based, Dengue virus; settings: DENV-2 16681 eGFP, MOI 0.5, 3 days
# Description: The antiviral activity of all the compounds of the invention was tested against the DENV-2 16681 strain which was labeled with enhanced green fluorescent protein (eGPF). The culture medium consists of minimal essential medium supplemented with 2% of heat-inactivated fetal calf serum, 0.04% gentamycin (50 mg/mL) and 2 mM of L-glutamine. Vero cells, obtained from ECACC, were suspended in culture medium and 25 μL was added to 384-well plates (2500 cells/well), which already contain the antiviral compounds. Typically, these plates contain a 5-fold serial dilution of 9 dilution steps of the test compound at 200 times the final concentration in 100% DMSO (200 nL). […] Finally, each plate contains wells which are assigned as virus controls (containing cells and virus in the absence of compound), cell controls (containing cells in the absence of virus and compound) and medium controls (containing medium in the absence of cells, virus and compounds). To the wells assigned as medium control, 25 μL of culture medium was added instead of Vero cells. Once the cells were added to the plates, the plates were incubated for 30 minutes at room temperature to allow the cells to distribute evenly within the wells. Next, the plates were incubated in a fully humidified incubator (37° C., 5% CO2) until the next day. Then, DENV-2 strain 16681, labeled with eGFP, was added at a multiplicity of infection (MOI) of 0.5. Therefore, 15 μL of virus suspension was added to all the wells containing test compound and to the wells assigned as virus control. In parallel, 15 μL of culture medium was added to the medium and cell controls. Next, the plates were incubated for 3 days in a fully humidified incubator (37° C., 5% CO2). At the day of the read out, the eGFP fluorescence was measured using an automated fluorescence microscope at 488 nm (blue laser). Using an in-house LIMS system, inhibition dose response curves for each compound were calculated and the half maximal effective concentration (EC50) was determined. Therefore, the percent inhibition (I) for every test concentration is calculated using the following formula: I=100*([…])/(SVC−SCC); ST, SCC and SVC are the amount of eGFP signal in the test compound, cell control and virus control wells, respectively. The EC50 represents the concentration of a compound at which the virus replication is inhibited with 50%, as measured by a 50% reduction of the eGFP fluorescent intensity compared to the virus control. The EC50 is calculated using linear interpolation (Table 1).
# [2] = in vitro; assay type: cell-based; settings: African green monkey, CC50
# Description: (§1) In parallel, the toxicity of the compounds was assessed on the same plates. Once the read-out for the eGFP signal was done, 40 μL of ATPlite, a cell viability stain, was added to all wells of the 384-well plates. ATP is present in all metabolically active cells and the concentration declines very rapidly when the cells undergo necrosis or apoptosis. The ATPLite assay system is based on the production of light caused by the reaction of ATP with added luciferase and D-luciferin. The plates were incubated for 10 minutes at room temperature. Next, the plates were measured on a ViewLux. The half maximal cytotoxic concentration (CC50) was also determined, defined as the concentration required to reduce the luminescent signal by 50% compared to that of the cell control wells. Finally, the selectivity index (SI) was determined for the compounds, which was calculated as followed: SI=CC50/EC50.
# [3] = test system: Vero cells; assay: in vitro; assay type: cell-based; settings: African green monkey
# Description: as §1
# [4] = test system: DENV-1 strain TC974#666; assay: Tetravalent RT-qPCR assay Protocol A, serotype 1; assay type: cell-based; settings: Dengue virus, DENV1, 72 h; RT-qPCR serotype 1 TC974#666, Vero cells, day 3
# Description: (§2) The antiviral activity of the compounds of the invention was tested against DENV-1 strain TC974#666 (NCPV), DENV-2 strain 16681, DENV-3 strain H87 (NCPV) and DENV-4 strains H241 (NCPV) and EDEN (SG/06K2270DK1/2005; GenBank accession number QG398256) in a RT-qPCR assay. Therefore, Vero cells were infected with either DENV-1, or -2, or -3, or -4 in the presence or absence of test compounds. At day 3 post-infection, the cells were lysed and cell lysates were used to prepare cDNA of both a viral target (the 3′UTR of DENV; Table 2) and a cellular reference gene (β-actin, Table 2). Subsequently, a duplex real time PCR was performed on a Lightcycler480 instrument. The generated Cp value is inversely proportional to the amount of RNA expression of these targets. Inhibition of DENV replication by a test compound results in a shift of Cp's for the 3′UTR gene. On the other hand, if a test compound is toxic to the cells, a similar effect on β-actin expression will be observed. The comparative ΔΔCp method is used to calculate EC50, which is based on the relative gene expression of the target gene (3′UTR) normalized with the cellular housekeeping gene (β-actin). In addition, CC50 values are determined based on the Cp values acquired for the housekeeping gene β-actin.
# (§3) The culture medium consisted of minimal essential medium supplemented with 2% of heat-inactivated fetal calf serum, 0.04% gentamycin (50 mg/mL) and 2 mM of L-glutamine. Vero cells, obtained from ECACC, were suspended in culture medium and 75 μL/well was added in 96-well plates (10000 cells/well), which already contain the antiviral compounds. […] In addition, each plate contains wells which are assigned as virus controls (containing cells and virus in the absence of compound) and cell controls (containing cells in the absence of virus and compound). Once the cells were added in the plates, the plates were incubated in a fully humidified incubator (37° C., 5% CO2) until the next day. Dengue viruses serotype-1, 2, 3 and 4 were diluted in order to obtain a Cp of ˜22-24 in the assay. Therefore, 25 μL of virus suspension, was added to all the wells containing test compound and to the wells assigned as virus control. In parallel, 25 μL of culture medium was added to the cell controls. Next, the plates were incubated for 3 days in a fully humidified incubator (37° C., 5% CO2). After 3 days, the supernatant was removed from the wells and the cells were washed twice with ice-cold PBS (˜100 μL). The cell pellets within the 96-well plates were stored at −80° C. for at least 1 day. Next, RNA was extracted using the Cells-to-CT™ lysis kit, according to the manufacturer's guideline (Life Technologies). The cell lysates can be stored at −80° C. or immediately used in the reverse transcription step.
# (§4) In preparation of the reverse transcription step, mix A (table 3A) was prepared and 7.57 μL/well was dispensed in a 96-well plate. After addition of 5 μL of the cell lysates, a five minute denaturation step at 75° C. was performed (table 3B). Afterwards, 7.43 μL of mix B was added (table 3C) and the reverse transcription step was initiated (table 3D) to generate cDNA.
# (§5) Finally, a RT-qPCR mix was prepared, mix C (table 4A), and 22.02 μL/well was dispensed in 96-well LightCycler qPCR plates to which 3 μL of cDNA was added and the qPCR was performed according to the conditions in table 4B on a LightCycler 480.
# (§6) Using the LightCycler software and an in-house LIMS system, dose response curves for each compound were calculated and the half maximal effective concentration (EC50) and the half maximal cytotoxic concentration (CC50) were determined (Tables 5-8).
# [5] = test system: DENV-2 strain 16681; assay: Tetravalent RT-qPCR assay Protocol A, serotype 2; assay type: cell-based; settings: Dengue virus, DENV2, 72 h; RT-qPCR serotype 2 16681, Vero cells, day 3
# Description: as §2, §3, §4, §5, §6
# [6] = test system: DENV-3 strain H87; assay: Tetravalent RT-qPCR assay Protocol A, serotype 3; assay type: cell-based; settings: Dengue virus, DENV3, 72 h; RT-qPCR serotype 3 H87, Vero cells, day 3
# Description: as §2, §3, §4, §5, §6
# [7] = test system: DENV-4 strain H241; assay: Tetravalent RT-qPCR assay Protocol A, serotype 4 H241; assay type: cell-based; settings: Dengue virus, DENV4, Vero, 72 h
# Description: as §2, §3, §4, §5, §6
# [8] = test system: DENV-4 strain EDEN (SG/06K2270DK1/2005); assay: Tetravalent RT-qPCR assay Protocol A, serotype 4 EDEN; assay type: cell-based; settings: Dengue virus, DENV4, 72 h; RT-qPCR serotype 4 EDEN, Vero cells, day 3
# Description: as §2, §3, §4, §5, §6
# [9] = in vitro; assay type: cell-based; settings: African green monkey
# Description: as §2, §3, §6
# [10] = Dengue virus, DENV2, Vero, 72 h
Structure (SMILES),"pEC50 [1, 10]",CC50 [2] [µM],melting point [°C],pEC50 [1],CC50 [3] [µM],pEC50 [4],pEC50 [5],pEC50 [6],pEC50 [7],pEC50 [8],CC50 at 3 days [9] [nM]
"COc1cc(NC(C(=O)c2c[nH]c3c(C)c(Cl)ccc23)c2ccc(Cl)cc2OCCO)cc(S(C)(=O)=O)c1 (racemic) [Compound 5, 2-(4-chloro-2-(2-hydroxyethoxy)phenyl)-1-(6-chloro-7-methyl-1H-indol-3-yl)-2-((3-methoxy-5-(methylsulfonyl)phenyl)amino)ethanone]",10.00,4.3,206,–,–,–,–,–,–,–,–
"COc1cc(NC(C(=O)c2c[nH]c3ccc(C(F)(F)F)cc23)c2ccc(Cl)cc2OCCO)cc(S(C)(=O)=O)c1 (racemic) [Compound 9, 2-(4-chloro-2-(2-hydroxyethoxy)phenyl)-2-((3-methoxy-5-(methylsulfonyl)phenyl)amino)-1-(5-(trifluoromethyl)-1H-indol-3-yl)ethanone]",10.00,> 2.5,228,–,–,–,–,–,–,–,–
"COc1cc(NC(C(=O)c2c[nH]c3cc(OC)c(OC(F)(F)F)cc23)c2ccc(Cl)cc2OCCO)cc(S(C)(=O)=O)c1 (racemic) [Compound 11, 2-(4-chloro-2-(2-hydroxyethoxy)phenyl)-2-((3-methoxy-5-(methylsulfonyl)phenyl)amino)-1-(6-methoxy-5-(trifluoromethoxy)-1H-indol-3-yl)ethanone]",9.70,> 2.5,212,–,–,–,–,–,–,–,–
"COc1cc(NC(C(=O)c2c[nH]c3cc(Cl)ccc23)c2ccc(Cl)cc2OCCO)cc(S(C)(=O)=O)c1 (single isomer, unassigned) [Compound 2A, 1-(6-chloro-1H-indol-3-yl)-2-(4-chloro-2-(2-hydroxyethoxy)phenyl)-2-((3-methoxy-5-(methylsulfonyl)phenyl)amino)ethanone]",–,–,–,9.96,3.4,8.80,9.85,7.74,7.13,8.89,> 2500
"COc1cc(NC(C(=O)c2c[nH]c3cc(OC)ccc23)c2ccc(Cl)cc2OCCO)cc(S(C)(=O)=O)c1 (single isomer, unassigned) [Compound 3A, 2-(4-chloro-2-(2-hydroxyethoxy)phenyl)-1-(6-methoxy-1H-indol-3-yl)-2-((3-methoxy-5-(methylsulfonyl)phenyl)amino)ethanone]",–,–,–,9.49,5.2,8.38,9.40,7.38,6.96,8.51,5800
"COc1cc(NC(C(=O)c2c[nH]c3c(C)c(F)ccc23)c2ccc(Cl)cc2OCCO)cc(S(C)(=O)=O)c1 (single isomer, unassigned) [Compound 4A, 2-(4-chloro-2-(2-hydroxyethoxy)phenyl)-1-(6-fluoro-7-methyl-1H-indol-3-yl)-2-((3-methoxy-5-(methylsulfonyl)phenyl)amino)ethanone]",–,3,–,9.89,–,8.77,9.80,7.74,7.11,8.85,> 2500
"COc1cc(NC(C(=O)c2c[nH]c3c(C)c(Cl)ccc23)c2ccc(Cl)cc2OCCO)cc(S(C)(=O)=O)c1 (single isomer, unassigned) [Compound 5B, 2-(4-chloro-2-(2-hydroxyethoxy)phenyl)-1-(6-chloro-7-methyl-1H-indol-3-yl)-2-((3-methoxy-5-(methylsulfonyl)phenyl)amino)ethanone]",–,–,–,10.18,3.4,8.80,10.19,7.92,7.13,8.96,> 2500
"COc1cc(NC(C(=O)c2c[nH]c3cc(OC)c(C)cc23)c2ccc(Cl)cc2OCCO)cc(S(C)(=O)=O)c1 (single isomer, unassigned) [Compound 6A, 2-(4-chloro-2-(2-hydroxyethoxy)phenyl)-2-((3-methoxy-5-(methylsulfonyl)phenyl)amino)-1-(6-methoxy-5-methyl-1H-indol-3-yl)ethanone]",–,3.8,–,9.89,–,8.80,9.68,7.77,7.28,9.00,4900
"COc1cc(NC(C(=O)c2c[nH]c3cc(F)c(F)cc23)c2ccc(Cl)cc2OCCO)cc(S(C)(=O)=O)c1 (single isomer, unassigned) [Compound 7A, 2-(4-chloro-2-(2-hydroxyethoxy)phenyl)-1-(5,6-difluoro-1H-indol-3-yl)-2-((3-methoxy-5-(methylsulfonyl)phenyl)amino)ethanone]",–,–,–,9.66,2.7,9.01,9.68,7.96,7.19,9.19,2900
